In patent publication US20130059879A1, “Small Molecule Inhibitors of PFKFB3 and Glycolytic Flux and Their Methods of Use as Anti-Cancer Therapeutics” (UNIVERSITY OF LOUISVILLE RESEARCH FOUNDATION, INC., priority 2010, published 2013):
≈ marks a conversion by molar mass, not a printed value. Read-outs that look alike come from different tables or passages of the source.

Legend:
HT-29 = test: Cell proliferation, MTT assay, 72 hours; format: cell-based; conditions: Homo sapiens, HT-29, MTT assay
Procedure: (§1) The ability of the compounds described herein to kill or inhibit the proliferation of cancer cells was measured using either the MTT assay, or the Alamar Blue assay, or the Cell Titer Glow® assay using 48 or 72 hours exposure. […] The procedures are briefly described below. Cells of the desired tumor cell line were plated at 2×10^5 cells/ml in 96 well plates. Twice the indicated concentrations of the compounds of the invention were added to cells the following day in an equal volume of media. 72 hours later, cells were lysed and subjected to ATP determination using the CellTiter Glo-Luminescent Cell Viability Assay kit (Promega, Madison, Wis.). Experiments were done in triplicate. When using the MTT assay or the Alamar blue assay, the experimental conditions are essentially similar; at the end of the incubation period, 20 microliters of the MTT solution is added per well and the samples are incubated for an additional four hours, rinsed, and the absorbance at 570 nm measured. […] Table 2 lists the IC50 values for the compounds of the invention in several cell lines including Jurkat, Calu-6, NCI-H82, U937, HCT-116, and MDA-MB-231 cancer cell lines.

Calu-6 [1] = test: Cell proliferation, MTT assay, 72 hours; format: cell-based; conditions: Homo sapiens, Calu-6, MTT assay
Procedure: as §1

MDA-MB-231 [2] = test: Cell proliferation, MTT assay, 72 hours; format: cell-based; conditions: Homo sapiens, MDA-MB-231, MTT assay
Procedure: as §1

Hep G2 = test: Cell proliferation, MTT assay, 72 hours; format: cell-based; conditions: Homo sapiens, HepG2
Procedure: as §1

K562 = test: Cell proliferation, MTT assay, 72 hours; format: cell-based; conditions: Homo sapiens
Procedure: as §1

Jurkat [3] = test: Cell proliferation, MTT assay, 72 hours; format: cell-based; conditions: Homo sapiens
Procedure: as §1

U937 [4] = test: Cell proliferation, MTT assay, 72 hours; format: cell-based; conditions: Homo sapiens, U-937
Procedure: as §1

NCI-H82 [5] = test: Cell proliferation, MTT assay, 72 hours; format: cell-based; conditions: Homo sapiens
Procedure: as §1

DU145 = test: Cell proliferation, MTT assay, 72 hours; format: cell-based; conditions: Homo sapiens, DU-145
Procedure: as §1

Hela = test: Cell proliferation, MTT assay, 72 hours; format: cell-based; conditions: Homo sapiens
Procedure: as §1

Jurkat cells = test: Inhibition of 14C-2-deoxyglucose uptake; format: cell-based; conditions: Homo sapiens, 3 hours
Procedure: Inhibition of PFKFB3 results in inhibiting glycolysis. Several feedback or feedforward activation and inhibition mechanisms exist so that, by a feedback mechanism, inhibiting the activity of PFKFB3 may inhibit glucose uptake by cells. An assay was developed to determine if there was inhibition of glucose uptake following exposure to the compounds on the invention. Briefly, Jurkat cells were plated at 1×10^5/mL in RPM′ 1640 supplemented with 10% fetal bovine serum and 50 μg/mL gentamicin sulfate. Cells were immediately treated with vehicle or 5 μmol/L of the compound of the invention for 3 hours and subsequently placed in glucose-free RPMI 1640 for 30 min. ^14C-2-deoxyglucose (0.25 μCi/mL; Perkin Elmer) was added for an additional 60 min and cells were then washed three with ice-cold RPMI 1640 containing no glucose. Cell lysates were collected in 500 μL of 0.1% SDS, and scintillation counts (counts/min) were measured on 400 μL of lysate. Counts were normalized to protein concentration.

[6] = Microsomal stability in human liver microsomes; format: in vitro ADME
Procedure: Microsomal stability in vitro in different biologic media (liver microsomes, S9 fraction, hepatocytes) and species is ascertained to evaluate the rate at which a compound undergoes metabolism in the experimental in vitro conditions. Results for some compounds of the invention after a 60 minutes incubation period in human liver microsomes are shown in the Table 6 below. […] Experimental conditions are briefly described here: the stability in human liver microsomes of several compounds was done over […] at 37° C. using pooled mixed gender human liver microsomes. These liver microsomes were prepared at 1.0 mg/ml of microsomal protein in a 100 mM potassium phosphate pH 7.4 buffer with 1 mM NADPH. The media was incubated at 37° C. with the compound in solution in DMSO. The concentration of the compound was followed by LC/MS-MS as a function of time. Samples were assayed at t=0, 15, 30, and 60 minutes. Testosterone was used as a positive control. The same experiment was performed with mouse, rat or dog liver microsomes instead of human liver microsomes.

PFKFB3 = target: T1, PFKFB3 (Homo sapiens, UniProt Q16875); test: Inhibition of recombinant PFKFB3 kinase activity (ADP Glow assay); format: biochemical; conditions: 250 nM analog concentration; read-out: % Inhibition of PFKFB3 Enzymatic Activity
T1 construct: GST
T1 sequence (Q16875 whole entry, species assumed): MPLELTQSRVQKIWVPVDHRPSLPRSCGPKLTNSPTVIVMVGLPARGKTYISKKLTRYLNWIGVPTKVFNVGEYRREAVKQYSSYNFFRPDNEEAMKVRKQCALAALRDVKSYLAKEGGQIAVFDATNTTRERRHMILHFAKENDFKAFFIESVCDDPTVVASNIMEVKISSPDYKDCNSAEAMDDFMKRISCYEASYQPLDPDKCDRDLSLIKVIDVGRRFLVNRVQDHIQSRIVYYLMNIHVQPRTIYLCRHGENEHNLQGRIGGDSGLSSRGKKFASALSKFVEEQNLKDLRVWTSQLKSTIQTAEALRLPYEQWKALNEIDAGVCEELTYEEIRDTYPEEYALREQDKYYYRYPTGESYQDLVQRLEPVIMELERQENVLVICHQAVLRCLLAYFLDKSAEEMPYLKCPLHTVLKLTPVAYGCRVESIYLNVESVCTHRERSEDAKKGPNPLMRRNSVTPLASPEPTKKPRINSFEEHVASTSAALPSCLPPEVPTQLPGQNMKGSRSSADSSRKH
Procedure: PFKFB3 was prepared by expression in E. coli and purified by GST column and column chromatography. […] The recombinant protein was pure and active as determined by the results of a kinase activity assay commercially available (such as ADP Glow® assay, […]). The same assay was used to determine the inhibition of the protein and the results are shown in Table 5 below (IC50 values or percent inhibition at a fixed concentration). Results confirmed that the compounds of the invention have low nanomolar IC50 values, interacting with PFKFB3 and inhibiting its enzymatic activity.

[7] = Solubility in solvents and excipients, 1 hour at room temperature, HPLC; format: physicochemical; conditions: thermodynamic from solid
Procedure: Chemical properties of the compounds of the invention were investigated, including the solubility in several solvents and pharmaceutically accepted excipients. […] Briefly, selected compounds of the invention are dissolved in a small volume of the solvents/excipients of interest at room temperature over 1 hour in typically 1 ml and the concentration is measured by HPLC after filtration.

Calu-6 [8] = test: Cancer cell proliferation, Alamar Blue assay, 72 hours; format: cell-based; conditions: Homo sapiens, Calu-6
Procedure, shortened: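 Calu-6 human cancer cells were seeded at 2×10^5 cells/ml in 96 well plates. The next day, an equal volume of media containing the compounds at twice the intended concentration was added. After 72 hours of exposure, inhibition of proliferation was measured with the Alamar Blue assay, run in triplicate, and IC50 values were determined.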

MDA-MB-231 [9] = test: as above; format: cell-based; conditions: Homo sapiens
Jurkat [10] = test: as above; format: cell-based; conditions: Homo sapiens, Jurkat
Procedure, shortened: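 Jurkat cells were plated at 2×10^5 cells/ml in 96 well plates, and the next day test compounds at twice the indicated concentrations were added in an equal volume of media. After 72 hours of exposure, proliferation or killing of the cancer cells was assessed with the Alamar Blue assay. Experiments were done in triplicate.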

U937 [11] = test: as above; format: cell-based; conditions: Homo sapiens, U-937
NCI-H82 [12] = test: as above; format: cell-based; conditions: Homo sapiens, NCI-H82, read-out: IC50 NCl-H82
Procedure, shortened: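 Proliferation of NCI-H82 cancer cells was assessed with the Alamar Blue assay. Cells were seeded into 96 well plates at 2×10^5 cells/ml, and the following day compounds were added at twice the indicated concentration in an equal volume of media. After 72 hours of exposure, IC50 values were determined from triplicate experiments.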

HCT-116 = test: as above; format: cell-based; conditions: Homo sapiens, HCT-116
[13] = 60 min incubation, 1.0 mg/ml microsomal protein, 1 mM NADPH, 37° C.
[14] = aqueous with cosolvent or surfactant or cyclodextrin, Cre:EtOH:Saline 5:5:90 mixture, 1 hour at room temperature, read-out: Solubility Cre:EtOH:Saline
[15] = ethanol, organic solvent or mixture, EtOH, 1 hour at room temperature, read-out: Solubility EtOH
[16] = organic solvent or mixture, 1:1 cremophor EL-P:ethanol mixture, 1 hour at room temperature, read-out: Solubility Cre:EtOH
[17] = organic solvent or mixture, Acetone, 1 hour at room temperature, read-out: Solubility Acetone
[18] = organic solvent or mixture, Cremophor, 1 hour at room temperature, read-out: Solubility Cremophor
[19] = organic solvent or mixture, DCM, 1 hour at room temperature, read-out: Solubility DCM
[20] = organic solvent or mixture, Tween 80, 1 hour at room temperature, read-out: Solubility Tween 80
[21] = organic solvent or mixture, Tween80:EtOH 6:4 mixture, 1 hour at room temperature, read-out: Solubility Twee80:EtOH

Row | HLM, Mean metabolized (%) ([6]; 0 min) | HLM, Mean metabolized (%) [6, 13] | inhibition at 0.25 µM (PFKFB3) | solubility at 1 h [7, 14] | solubility at 1 h [7, 15] | solubility at 1 h [7, 16] | solubility at 1 h [7, 17] | solubility at 1 h [7, 18] | solubility at 1 h [7, 19] | solubility at 1 h [7, 20] | solubility at 1 h [7, 21] | IC50 (Calu-6 [8]) | IC50 (MDA-MB-231 [9]) | IC50 (Jurkat [10]) | IC50 (U937 [11]) | IC50 (NCI-H82 [12]) | IC50 (HCT-116) | SMILES | inhibition at 5 µM (Jurkat cells) | also measured
1 | 0.0% | 26% | 26.2% | 0.3 mg/mL (≈ 1.1 mM) | 1.6 mg/mL (≈ 5.88 mM) | 10 mg/mL (≈ 36.7 mM) | 5 mg/mL (≈ 18.4 mM) | 6.9 mg/mL (≈ 25.3 mM) | 3.4 mg/mL (≈ 12.5 mM) | 7.4 mg/mL (≈ 27.2 mM) | 9.7 mg/mL (≈ 35.6 mM) | 0.208 µM | 0.395 µM | 1.5 µM | 0.05 µM | 0.498 µM | 2.4 µM | O=C(c1ccncc1)c1cc2c(ccc3ccccc32)[nH]1 [ACT-PFK-095, (3H-Benzo[e]indol-2-yl)-pyridin-4-yl-methanone] | 48% | IC50 (HT-29): 0.45 µM; IC50 (Calu-6 [1]): 0.14 µM; IC50 (MDA-MB-231 [2]): 24.9 µM; IC50 (Hep G2): 5.5 µM; IC50 (K562): 0.21 µM; IC50 (Jurkat [3]): 4.65 µM; IC50 (U937 [4]): 0.05 µM; IC50 (NCI-H82 [5]): 0.18 µM; IC50 (DU145): 0.94 µM; IC50 (Hela): 9.1 µM
2 | 0.0% | 82.7% | 81.5% | 3.7 mg/mL (≈ 12.9 mM) | 7.4 mg/mL (≈ 25.8 mM) | 37.6 mg/mL (≈ 131 mM) | 8.2 mg/mL (≈ 28.6 mM) | 18.6 mg/mL (≈ 65 mM) | 14 mg/mL (≈ 48.9 mM) | 18.1 mg/mL (≈ 63.2 mM) | 35.6 mg/mL (≈ 124 mM) | 0.26 µM | 0.205 µM | 0.625 µM | 0.13 µM | 0.685 µM | 1.44 µM | Nc1ccc(C(=O)c2cc3c(ccc4ccccc43)[nH]2)cc1 [ACT-PFK-112, (4-Amino-phenyl)-(3H-benzo[e]indol-2-yl)-methanone] | 47% | –
